Here are results for 29 molecules from US11439707B2, “Hypocrellin derivative substituted both in a peri-position and in 2-position by amino, preparation method, and application thereof” (priority 2017, dated 2022).

A short description of data set [1]: absorption spectrum (maximum absorption wavelength, molar extinction coefficient). The format is physicochemical.
Data set [2] can be described thus: singlet oxygen efficiency test, reference rose bengal. Type of data set: physicochemical.

On to `COCCOCCOCCOCCOCCOCCOCCOCCOCCOCCOCCOCCOC(=O)CCCCCNc1c2c3c4c(c(OC)c(=O)c5c(NCCCCCC(=O)OCCOCCOCCOCCOCCOCCOCCOCCOCCOCCOCCOCCOC)cc(OC)c(c6c(OC)cc(O)c(c1=O)c63)c54)CC(C)=C2` [HC-9d-PEG12], for which, in data set [1], the maximum absorption wavelength was found to be 625 nm and the molar extinction coefficient is 31,500 M^−1cm^−1. In addition, the singlet oxygen yield in data set [2] was 32%.

As to `COc1c2c3c4c(c(NO)c(=O)c5c(O)cc(OC)c(c6c(OC)cc(NO)c(c1=O)c63)c54)C=C(C)C2` [HC-37d], in data set [1], the maximum absorption wavelength is reported as 620 nm and the molar extinction coefficient is on record as 32,000 M^−1cm^−1. Further, in data set [2], the singlet oxygen yield was determined as 33%.

In the case of `COc1c(O)c2c(=O)cc(OC)c3c4c(OC)cc(=O)c5c(NCc6cccc[n+]6CCCC(=O)O)c(NCc6cccc[n+]6CCCC(=O)O)c6c(c(c1C(C(C)=O)C(C)=C6)c23)c54` (stereo not drawn) [HB-38a-N—COOH], in data set [1], the maximum absorption wavelength was determined as 620 nm and the molar extinction coefficient is 22,000 M^−1cm^−1. In addition, the singlet oxygen yield in data set [2] came to 20%.

On to `COc1c2c3c4c(c(NCCCS(=O)(=O)O)c(=O)c5c(O)cc(OC)c(c6c(OC)cc(NCS(=O)(=O)O)c(c1=O)c63)c54)C=C(C)C2` [HC-45d], for which, in data set [1], the maximum absorption wavelength worked out at 624 nm and the molar extinction coefficient is recorded as 21,000 M^−1cm^−1. For the same molecule, in data set [2], the singlet oxygen yield turned out to be 21%.

Regarding `COc1c2c3c4c(c(NCCCC(=O)NCCCCS(=O)(=O)O)c(=O)c5c(O)cc(OC)c(c6c(OC)cc(NCCCC(=O)NCCCCS(=O)(=O)O)c(c1=O)c63)c54)C=C(C)C2` [HC-8d-NH—C4-SO3H], in data set [1], the maximum absorption wavelength is recorded as 626 nm and the molar extinction coefficient is reported as 30,500 M^−1cm^−1. The same molecule gave a singlet oxygen yield in data set [2] of 32%.

For the molecule `COc1c2c3c4c(c(NCc5cccc[n+]5CCCC(=O)O)c(=O)c5c(NCc6cccc[n+]6CCCC(=O)O)cc(OC)c(c6c(OC)cc(O)c(c1=O)c63)c54)C=C(C)C2C(C)=O` (stereo not drawn) [HB-38c-N—COOH], in data set [1], the maximum absorption wavelength turned out to be 622 nm and the molar extinction coefficient is reported as 21,500 M^−1cm^−1. In data set [2], this molecule displayed a singlet oxygen yield of 21%.

As for `COc1c(NC2CCC(C(=O)O)CC2)c2c(=O)cc(OC)c3c4c(OC)cc(=O)c5c(O)c(NC6CCC(C(=O)O)CC6)c6c(c(c1C(C(C)=O)C(C)=C6)c23)c54` (stereo not drawn) [HB-14b], in data set [1], the maximum absorption wavelength was 623 nm and the molar extinction coefficient is 27,000 M^−1cm^−1. Besides, the singlet oxygen yield in data set [2] was found to be 24%.

In the case of `COc1c(O)c2c(=O)cc(OC)c3c4c(OC)cc(=O)c5c(NC(CO)C(=O)O)c(NC(CO)C(=O)O)c6c(c(c1C(C(C)=O)C(C)=C6)c23)c54` (stereo not drawn) [HB-23a], in data set [1], the maximum absorption wavelength came out at 625 nm and the molar extinction coefficient is 21,500 M^−1cm^−1. Besides, the singlet oxygen yield in data set [2] was 20%.

For `COc1c2c3c4c(c(NC(CCC(=O)O)C(=O)O)c(=O)c5c(O)cc(OC)c(c6c(OC)cc(NC(CCC(=O)O)C(=O)O)c(c1=O)c63)c54)C=C(C)C2C(C)=O` (stereo not drawn) [HB-28d], in data set [1], the maximum absorption wavelength is recorded as 620 nm and the molar extinction coefficient is 20,500 M^−1cm^−1. Also, the singlet oxygen yield in data set [2] worked out at 18%.

Take `COCCOCCOCCOCCOCCOCCOC(=O)CCCNc1c2c3c4c(c(OC)c(=O)c5c(NCCCC(=O)OCCOCCOCCOCCOCCOCCOC)cc(OC)c(c6c(OC)cc(O)c(c1=O)c63)c54)CC(C)=C2` [HC-8d-PEG6]: in data set [1], the maximum absorption wavelength is 624 nm and the molar extinction coefficient is listed as 31,500 M^−1cm^−1. Also, the singlet oxygen yield in data set [2] worked out at 32%.

For `CCCCCCNc1c(NCCCCCC)c2c(=O)cc(OC)c3c4c(OC)cc(=O)c5c(O)c(OC)c6c(c(c1C=C(C)C6)c23)c54` [HC-34a], in data set [1], the maximum absorption wavelength worked out at 625 nm and the molar extinction coefficient is recorded as 31,500 M^−1cm^−1. In data set [2], this molecule came in with a singlet oxygen yield of 30%.

As to `COCCOCCOCCOCCOCCOCCOCCC(=O)N1CCC(CNc2c(O)c3c(=O)cc(OC)c4c5c(OC)cc(=O)c6c(NCC7CCN(C(=O)CCOCCOCCOCCOCCOCCOCCOC)CC7)c(OC)c7c(c(c2C=C(C)C7C(C)=O)c34)c65)CC1` (stereo not drawn) [HB-31b-PEG6], in data set [1], the maximum absorption wavelength was 622 nm and the molar extinction coefficient is listed as 31,000 M^−1cm^−1. The singlet oxygen yield in data set [2] is listed as 38%.

For the molecule `COCCOCCC(=O)OCCOCCNc1c2c3c4c(c(OC)c(=O)c5c(O)cc(OC)c(c6c(OC)cc(NCCOCCOC(=O)CCOCCOC)c(c1=O)c63)c54)CC(C)=C2` [HC-1c-PEG1], in data set [1], the maximum absorption wavelength worked out at 625 nm and the molar extinction coefficient is given as 32,500 M^−1cm^−1. In addition, the singlet oxygen yield in data set [2] is listed as 34%.

With `COc1c(NC(C(=O)O)C(C)C)c2c(=O)cc(OC)c3c4c(OC)cc(=O)c5c(O)c(NC(C(=O)O)C(C)C)c6c(c(c1C(C(C)=O)C(C)=C6)c23)c54` (stereo not drawn) [HB-22b], in data set [1], the maximum absorption wavelength is listed as 618 nm and the molar extinction coefficient was 21,000 M^−1cm^−1. Also, the singlet oxygen yield in data set [2] amounted to 19%.

With `COc1c(O)c2c(=O)cc(OC)c3c4c(OC)cc(=O)c5c(NCCCC(=O)NCCS(=O)(=O)O)c(NCCCC(=O)NCCS(=O)(=O)O)c6c(c(c1CC(C)=C6)c23)c54` [HC-8a-NH—C2-SO3H], in data set [1], the maximum absorption wavelength amounted to 620 nm and the molar extinction coefficient was 31,000 M^−1cm^−1. In data set [2], this molecule returned a singlet oxygen yield of 32%.

`CCNc1c(NC2CCCC2)c2c(=O)cc(OC)c3c4c(OC)cc(=O)c5c(O)c(OC)c6c(c(c1C=C(C)C6C(C)=O)c23)c54` (stereo not drawn) [HB-44a]: in data set [1], the maximum absorption wavelength stood at 628 nm and the molar extinction coefficient is on record as 21,500 M^−1cm^−1. In data set [2], this molecule gave a singlet oxygen yield of 20%.

For `COc1c(NCCC2CCC(O)CC2)c2c(=O)cc(OC)c3c4c(OC)cc(=O)c5c(O)c(NCCC6CCC(O)CC6)c6c(c(c1C(C(C)=O)C(C)=C6)c23)c54` (stereo not drawn) [HB-18b], in data set [1], the maximum absorption wavelength was 621 nm and the molar extinction coefficient is on record as 24,500 M^−1cm^−1. This molecule came in with a singlet oxygen yield in data set [2] of 21%.

Regarding `COCCOCCC(=O)N1CCC(CNc2c(NCC3CCN(C(=O)CCOCCOC)CC3)c3c(=O)cc(OC)c4c5c(OC)cc(=O)c6c(O)c(OC)c7c(c(c2C=C(C)C7C(C)=O)c34)c65)CC1` (stereo not drawn) [HB-31a-PEG1], in data set [1], the maximum absorption wavelength turned out to be 622 nm and the molar extinction coefficient is on record as 32,000 M^−1cm^−1. In data set [2], this molecule yielded a singlet oxygen yield of 32%.

For the molecule `COc1c2c3c4c(c(NCCC(=O)O)c(=O)c5c(NCCC(=O)O)cc(OC)c(c6c(OC)cc(O)c(c1=O)c63)c54)C=C(C)C2C(C)=O` (stereo not drawn) [HB-10c], in data set [1], the maximum absorption wavelength was found to be 622 nm and the molar extinction coefficient is recorded as 33,000 M^−1cm^−1. Also, the singlet oxygen yield in data set [2] is 38%.

`COc1c2c3c4c(c(NC(CC(N)=O)C(=O)O)c(=O)c5c(NC(CC(N)=O)C(=O)O)cc(OC)c(c6c(OC)cc(O)c(c1=O)c63)c54)C=C(C)C2C(C)=O` (stereo not drawn) [HB-26c]: in data set [1], the maximum absorption wavelength came to 614 nm and the molar extinction coefficient was 21,500 M^−1cm^−1. Further, the singlet oxygen yield in data set [2] is listed as 21%.

As to `COCCOCCOCCOCCOCCOCCOCCOCCOCCOCCOCCOCCOC(=O)C1CCC(Nc2c3c4c5c(c(OC)c(=O)c6c(O)cc(OC)c(c7c(OC)cc(NC8CCC(C(=O)OCCOCCOCCOCCOCCOCCOCCOCCOCCOCCOCCOCCOC)CC8)c(c2=O)c74)c65)C(C(C)=O)C(C)=C3)CC1` (stereo not drawn) [HB-14c-PEG12], in data set [1], the maximum absorption wavelength was found to be 628 nm and the molar extinction coefficient is reported as 33,500 M^−1cm^−1. Moreover, the singlet oxygen yield in data set [2] was 38%.

As for `COCCOCCOCCOCCOCCOCCOCCOCCOCCOCCOCCOCCOCCC(=O)OCCOCCNc1c2c3c4c(c(OC)c(=O)c5c(O)cc(OC)c(c6c(OC)cc(NCCOCCOC(=O)CCOCCOCCOCCOCCOCCOCCOCCOCCOCCOCCOCCOCCOC)c(c1=O)c63)c54)CC(C)=C2` [HC-1c-PEG12], in data set [1], the maximum absorption wavelength amounted to 626 nm and the molar extinction coefficient is 32,500 M^−1cm^−1. In data set [2], the singlet oxygen yield worked out at 35%.

With `COc1c2c3c4c(c(NCC5CCC(C(=O)NCCCC[P+](c6ccccc6)(c6ccccc6)c6ccccc6)CC5)c(=O)c5c(O)cc(OC)c(c6c(OC)cc(NCC7CCC(C(=O)NCCCC[P+](c8ccccc8)(c8ccccc8)c8ccccc8)CC7)c(c1=O)c63)c54)C=C(C)C2` (stereo not drawn) [HC-13d-NH—C4-PPh3+], in data set [1], the maximum absorption wavelength was determined as 618 nm and the molar extinction coefficient is reported as 31,500 M^−1cm^−1. In data set [2], this molecule gave a singlet oxygen yield of 30%.

With `COc1c2c3c4c(c(NCCO)c(=O)c5c(NCCO)cc(OC)c(c6c(OC)cc(O)c(c1=O)c63)c54)C=C(C)C2C(C)=O` (stereo not drawn) [HB-2c], in data set [1], the maximum absorption wavelength is given as 628 nm and the molar extinction coefficient is reported as 31,000 M^−1cm^−1. This molecule had a singlet oxygen yield in data set [2] of 30%.

Consider `COc1c2c3c4c(c(NCCNCCOCCO)c(=O)c5c(O)c(Br)c(OC)c(c6c(OC)cc(NCCNCCOCCO)c(c1=O)c63)c54)C=C(C)C2C(C)=O` (stereo not drawn) [HB-5d-Br-PEG1], for which, in data set [1], the maximum absorption wavelength was 624 nm and the molar extinction coefficient was 29,500 M^−1cm^−1. Moreover, the singlet oxygen yield in data set [2] was determined as 32%.

Turning to `COc1c(O)c2c(=O)cc(OC)c3c4c(OC)cc(=O)c5c(NCc6cccc[n+]6C)c(NCc6cccc[n+]6C)c6c(c(c1C(C(C)=O)C(C)=C6)c23)c54` (stereo not drawn) [HB-38a-N^+], in data set [1], the maximum absorption wavelength was 620 nm and the molar extinction coefficient is reported as 22,000 M^−1cm^−1. This molecule yielded a singlet oxygen yield in data set [2] of 18%.

In the case of `COc1c2c3c4c(c(NCC(=O)O)c(=O)c5c(NCCCC(=O)O)cc(OC)c(c6c(OC)cc(O)c(c1=O)c63)c54)C=C(C)C2C(C)=O` (stereo not drawn) [HB-43c], in data set [1], the maximum absorption wavelength stood at 626 nm and the molar extinction coefficient was 26,500 M^−1cm^−1. For the same molecule, in data set [2], the singlet oxygen yield worked out at 30%.

`COc1c2c3c4c(c(NC(CCC(=O)O)C(=O)O)c(=O)c5c(NC(CCC(=O)O)C(=O)O)cc(OC)c(c6c(OC)cc(O)c(c1=O)c63)c54)C=C(C)C2C(C)=O` (stereo not drawn) [HB-28c]: in data set [1], the maximum absorption wavelength was 625 nm and the molar extinction coefficient is 21,500 M^−1cm^−1. The molecule also returned a singlet oxygen yield in data set [2] of 22%.

For `COC(=O)C(CO)Nc1c2c3c4c(c(OC)c(=O)c5c(NC(CO)C(=O)OC)cc(OC)c(c6c(OC)cc(O)c(c1=O)c63)c54)C(C(C)=O)C(C)=C2` (stereo not drawn) [HB-24d], in data set [1], the maximum absorption wavelength was 621 nm and the molar extinction coefficient is on record as 20,500 M^−1cm^−1. For the same molecule, the singlet oxygen yield in data set [2] is reported as 20%.
